Consider eight molecules from patent US11458099B2, “Inhalable antimicrobial particles and methods of making the same” (The Penn State Research Foundation, priority 2017, dated 2022).

One data set has as its system MS S. aureus. Description: MIC of AMPs. Format: cell-based. As to conditions: Gram +.
The test system of the next data set is P. aeruginosa. Description: MIC of AMPs. It counts as cell-based. As to conditions: Gram −.
The subject of another data set is A. baumannii. As to the kind of experiment: MIC of AMPs. It counts as cell-based. Conditions: Gram −.
Another data set concerns S. enterica. Description: MIC of AMPs. It counts as cell-based. Conditions: Gram −.
Another data set deals with H. influenzae. As to the kind of experiment: MIC of AMPs. Format: cell-based. As to conditions: Gram −.
Data set [1] has as its system M. smegmatis. Description: MIC of AMPs. It counts as cell-based. As to conditions: Gram +/−.
The subject of the next data set is MR S. aureus. As to conditions: Gram +.
The next data set deals with B. anthrax. As to conditions: Gram +.
In data set [2] the test system is M. tuberculosis. As to conditions: minimum concentration inhibiting 90% culture growth; cited from earlier work.
In data set [3] the test system is M. tuberculosis. As to conditions: Gram +/−.
Data set [4] relates to M. smegmatis. As to conditions: minimum concentration inhibiting 90% culture growth; cited from earlier work.
In data set [5] the test system is THP-1 human macrophage control cell line. Conditions: selectivity index at IC90, MTb over THP-1 human macrophage control cell line; cited from earlier work.
In the next data set the test system is growing MTb. As to the kind of experiment: KKL-35 viability of growing MTb cultures, plating assay. Format: cell-based, Mycobacterium tuberculosis. As to conditions: FIG. 5A.
Data set [6] deals with dormant persister cells (MTb). As to the kind of experiment: KKL-35 viability of non-replicating MTb, Wayne model. It counts as cell-based, Mycobacterium tuberculosis. Conditions: 3 days, FIG. 5B.
A further data set is described as follows: physchem. As to conditions: water.
In the next data set the test system is A. baumannii (−). As to the kind of experiment: MIC of VAN, NGVAN, NG (broth dilution). Format: cell-based. Conditions: Acinetobacter baumannii, read-out: MIC of VAN. The method, then:
(§1) 2× Dilutions of treatments in broth were plated into a U-bottom 96 well plate. Overnight cultures of Pseudomonas aeruginosa, Escherichia coli, Acinetobacter baumannii, Salmonella enterica and Staphylococcus aureus were incubated in cation adjusted Mueller-Hinton broth as advised by CLSI. Bacteria were diluted to an OD600 of 0.002 and plated in a 1:1 volume ratio with the treatments. These cultures were incubated overnight and MIC values were assessed by visual evaluation of growth inhibition when compared to untreated samples.
(Dilution methods test growth across graded concentrations, often in twofold steps.)

The test system of the next data set is E. coli (−). As to the kind of experiment: MIC of VAN, NGVAN, NG (broth dilution). It counts as cell-based. As to conditions: Escherichia coli, drug or equivalent concentration of drug loaded into nanogels. The method, then: as §1
The subject of a further data set is P. aeruginosa (−). As to the kind of experiment: MIC of VAN, NGVAN, NG (broth dilution). It counts as cell-based. Conditions: Pseudomonas aeruginosa, read-out: MIC of VAN. The method, then: as §1
A further data set concerns S. enterica (−). Description: MIC of VAN, NGVAN, NG (broth dilution). It counts as cell-based. As to conditions: Salmonella enterica, drug or equivalent concentration of drug loaded into nanogels. As for the experimental part:
as §1

A further data set deals with S. aureus (+). Description: MIC of VAN, NGVAN, NG (broth dilution). Conditions: S. aureus vs four gram-negative pathogens. It counts as cell-based, Staphylococcus aureus. The method, then: as §1
Data set [7] deals with panel of gram-negative and gram-positive bacterial pathogens. Description: Antibacterial activity against the whole panel. It counts as cell-based. Conditions: four different gram-negative pathogens; highest concentration tested. As for the experimental part:
as §1
Next, the antibacterial activity of VAN-loaded nanogels were evaluated against a panel of gram-negative and gram-positive bacterial pathogens (Table 5). It is important to note that clinical use of VAN is generally excluded to gram-positive infections as most gram-negative pathogens are innately resistant to the drug. This is due to the thick outer membrane of gram-negative bacteria which prevents the large glycopeptide drug from diffusing into the cell wall and reaching its enzymatic target.

A short description of data set [8]: Cargo release from nanogels by dialysis into 37° C. PBS. It counts as physicochemical. As to conditions: from N:P 10 nanogel carrier. The method, then:
Loaded BNCs in DI water were injected into 300 kDa MWCO dialysis tubing. The tubing was submerged in a 30× (by volume) bath of PBS. At predetermined time points, multiple samples (n≥3) were collected from multiple locations throughout the bath. These samples were pooled and release was characterized in the same method used for assessing initial loading. Before each measurement, volume was adjusted to that of the initial bath to ensure concentration consistency.
Next, physiologic release of the encapsulated cargo was assessed by loading each nanogel formulation into a dialysis cassette and suspending it in a release media of 37° C. PBS. The concentration of loaded drug or GFP liberated to the dialysis media was then monitored as a function of time via UV-Vis or fluorescence spectroscopy, respectively. […] The majority of encapsulated protein (>75%) was retained within the nanogel carrier for the first 24 hours, followed by a rapid release phase that occurred between 24 and 72 hours.

≈ marks a conversion by molar mass, not a printed value. Ends that are not written are not given here.

For orientation: IC90 means the concentration needed for an effect of 90%. Turning to KRWWKWWRR-NH2 [Entry 3], the MIC worked out at 80 µM in the data set on MS S. aureus; 20 µM with P. aeruginosa; 80 µM in the data set on A. baumannii; 80 µM with S. enterica; 80 µM in the data set with H. influenzae; 20 µM with M. smegmatis [1]. In addition, the MIC in the data set on MR S. aureus amounted to 80 µM; in the data set on B. anthrax it was 80 µM; in the data set on M. tuberculosis [3], 10 µM. Besides, the concentration for an effect of 90% (IC90) in the data set with M. tuberculosis [2] was 3.1 µM; in the data set on M. smegmatis [4], 4.9 µM. The SI90 in data set [5] is reported as 51.2.

By solubility is commonly meant the concentration that dissolves in the medium under given conditions. Lower therefore signals little dissolved substance. On to `O=C(Nc1nnc(-c2ccc(F)cc2)o1)c1ccc(Cl)cc1` [KKL-35, 4-chloro-N-(5-(4-fluorophenyl)-1,3,4-oxadiazol-2-yl)benzamide], for which the “IC towards growing MTb” value in the data set with growing MTb was under 1.6 µg/mL. Also, in data set [6], the “IC towards dormant persister cells” value is under 1.6 µg/mL. For the same molecule, in the data set with human HeLa cells, the “IC towards human HeLa cells” value is over 500 µg/mL. The molecule further registered a solubility in “physchem” of 500 µg/mL (≈ 1570 µM).

In the case of RRWWRWVVW-NH2 [Entry 4], the MIC came to 20 µM with MS S. aureus; 80 µM in the data set with P. aeruginosa; 10 µM in the data set on A. baumannii; 80 µM with S. enterica; 40 µM in the data set with H. influenzae; 20 µM in the data set on M. smegmatis [1]. In addition, the MIC in the data set with MR S. aureus, in the data set on B. anthrax and against M. tuberculosis [3] was 20 µM throughout. For the same molecule, the IC90 in the data set on M. tuberculosis [2] is 5.6 µM; in the data set with M. smegmatis [4], 11.4 µM. In addition, in data set [5], the SI90 is listed as 32.0.

As to “ILRWKWRWWRWRR-NH2 [Entry 2, cationic antimycobacterial peptide, amidated C-terminus]”, in the data set on M. smegmatis [4], the concentration for an effect of 90% (IC90) was 2.4 µM. Also, the SI90 in data set [5] was 21.3.

As to `CN[C@H](CC(C)C)C(=O)N[C@H]1C(=O)N[C@@H](CC(N)=O)C(=O)N[C@H]2C(=O)N[C@H]3C(=O)N[C@H](C(=O)N[C@H](C(=O)O)c4cc(O)cc(O)c4-c4cc3ccc4O)[C@H](O)c3ccc(c(Cl)c3)Oc3cc2cc(c3O[C@@H]2O[C@H](CO)[C@@H](O)[C@H](O)[C@H]2O[C@H]2C[C@](C)(N)[C@H](O)[C@H](C)O2)Oc2ccc(cc2Cl)[C@H]1O` [VAN, Vancomycin], the MIC with A. baumannii (−), in the data set on E. coli (−), with P. aeruginosa (−) and with S. enterica (−) was 144 µg/mL each time. The “times more effective in killing S. aureus than gram-negative pathogens” value with S. aureus (+) was over 30 times. Further, the “concentration giving inhibition of bacterial growth” value in data set [7] amounted to 144 µg/mL. The “time to 90% drug release” value in data set [8] (first order kinetics) was at most 4 h.

With H-WKWLKKWIK-NH2 [Entry 1], the MIC in the data set on MS S. aureus is over 80 µM; in the data set on P. aeruginosa, 10 µM; in the data set on A. baumannii, 25 µM; with S. enterica, 40 µM; in the data set on H. influenzae, 80 µM; in the data set on M. smegmatis [1], 20 µM. Further, the MIC is over 80 µM in the data set on MR S. aureus, 10 µM in the data set with B. anthrax and 20 µM in the data set on M. tuberculosis [3]. Further, the 90% effect concentration (IC90) in the data set on M. tuberculosis [2] is 1.1 µM; with M. smegmatis [4] it was 1.9 µM. For the same molecule, the SI90 in [5] is listed as 21.3.

Regarding H-KRWHWWRRHWVVW-NH2 [SMAS-1], the MIC is over 80 µM in the data set with MS S. aureus; 50 µM with P. aeruginosa; 50 µM with A. baumannii; 80 µM in the data set with S. enterica; 80 µM in the data set on H. influenzae; 5 µM in the data set on M. smegmatis [1]. The MIC in the data set with MR S. aureus was over 80 µM; in the data set on B. anthrax it was over 80 µM; against M. tuberculosis [3] it was 3 µM.

As for `COc1cccc2c1C(=O)c1c(O)c3c(c(O)c1C2=O)C[C@@](O)(C(=O)CO)C[C@@H]3O[C@H]1C[C@H](N)[C@H](O)[C@H](C)O1` [DOX, Doxorubicin], in [8], the “time to complete release” value is 48 h and the zero-order release rate is given as about 4 %/hour.
